SMILES strings stand for the structures.

The target of the assay is T1, CobL (Rhodobacter capsulatus, UniProt D5AV04).
T1 sequence (D5AV04 214-396): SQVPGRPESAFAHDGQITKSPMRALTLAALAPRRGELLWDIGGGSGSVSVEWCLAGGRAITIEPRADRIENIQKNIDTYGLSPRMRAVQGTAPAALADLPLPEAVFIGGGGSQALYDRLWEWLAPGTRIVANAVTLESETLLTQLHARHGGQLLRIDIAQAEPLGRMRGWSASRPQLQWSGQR
Put plainly: X-ray crystal structure at […] Å. The class given is binding.

On to `Nc1ncnc2c1ncn2[C@@H]1O[C@H](CSCC[C@H](N)C(=O)O)[C@@H](O)[C@H]1O` [SAH], for which the “X-ray crystal structure at 2.7 Å” value is recorded as “The SAM binding site of the CobL^C subunit showing SAH bound at the C-terminal end of the Rossmann-like”.

The record behind these values is paper PMC3480714 (Nature chemical biology, 2012).
